Measured values reported in BigSolDB 2.1.

N#Cc1ccc(C(c2ccc(C#N)cc2)n2cncn2)cc1
solubility (mole fraction)
Conditions | 283.15 K | 288.15 K | 293.15 K | 298.15 K | 303.15 K | 308.15 K | 313.15 K | 318.15 K | 323.15 K
in THF | 0.0164 | 0.0184 | 0.0206 | 0.0229 | 0.0254 | 0.0281 | 0.0309 | 0.034 | 0.0373
in acetone | 0.0147 | 0.0168 | 0.019 | 0.0214 | 0.0241 | 0.027 | 0.0301 | 0.0335 | 0.0371
in acetonitrile | 0.00638 | 0.0077 | 0.00923 | 0.011 | 0.0131 | 0.0154 | 0.018 | 0.021 | 0.0244
in ethanol | 0.000456 | 0.000586 | 0.000748 | 0.000946 | 0.00119 | 0.00148 | 0.00183 | 0.00225 | 0.00275
in ethyl acetate | 0.00527 | 0.00609 | 0.007 | 0.00802 | 0.00914 | 0.0104 | 0.0117 | 0.0132 | 0.0148
in methanol | 0.00108 | 0.00133 | 0.00163 | 0.00198 | 0.00239 | 0.00287 | 0.00342 | 0.00406 | 0.00479
in methyl acetate | 0.0105 | 0.0119 | 0.0135 | 0.0151 | 0.017 | 0.019 | 0.0211 | 0.0234 | 0.0259
in n-propanol | 0.000351 | 0.000461 | 0.0006 | 0.000773 | 0.000989 | 0.00125 | 0.00158 | 0.00197 | 0.00245
